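96-well plates; 48 h exposure; 5 concentrations. Endpoints by linear interpolation between flanking doses. Not reached: highest tested concentration assigned. GI50 = concentration required for 50% inhibition of growth.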 Activity calls are given as the source filed them. Rule as the data show it: active = GI50 up to about 1.1 µM and inactive = higher. Bounds are passed on as bounds.

Some test systems named below: NCI-H23; COLO 205; SN12C; EKVX; CAKI-1; NCI-H460; OVCAR-8; SK-OV-3; SNB-78; U-251; M14; A549; UO-31; HCT-15; UACC-62; MDA-N; DU-145; MCF7; MDA-MB-231; Hs-578T.
Holding throughout (test): growth of human tumour cells (NCI), 48 h

Turning to `C/C(=N/NC(=O)C(N)=O)C(CC(C(=O)Nc1ccccc1C)/C(C)=N\NC(=O)C(N)=O)C(=O)Nc1ccccc1C` (stereo unspecified), the GI50 with NCI-H23, in the assay on COLO 205, in the assay on SN12C, in the assay on EKVX, with CAKI-1 and with NCI-H460 was > 100 µM (inactive) each time. Moreover, the GI50 in the assay with OVCAR-8, with SK-OV-3, with SNB-78, in the assay with U-251, in the assay on M14 and in the assay on A549 was > 100 µM (inactive) each time. In addition, the GI50 in the assay on UO-31 is 70.5 µM (inactive).

For `CCOc1ccc(NC(=O)CCc2nnc(SC)o2)cc1`, the GI50 is > 100 µM (inactive) in the assay on NCI-H23; > 100 µM (inactive) with COLO 205; > 100 µM (inactive) in the assay on SN12C; > 100 µM (inactive) in the assay on EKVX; above 100 µM with HCT-15; > 100 µM (inactive) with CAKI-1. Besides, the GI50 with NCI-H460, with OVCAR-8, in the assay with SK-OV-3, with SNB-78, with U-251 and in the assay with M14 was > 100 µM (inactive) each time. In addition, the GI50 with UACC-62, in the assay with A549 and in the assay on UO-31 was > 100 µM (inactive) in each case.

For `C=CCCCCCCCCCCCC1CCC(CC)N1` (stereo unspecified), the GI50 in the assay on NCI-H23 is 14.4 µM (inactive); in the assay on COLO 205, 3.37 µM (inactive); in the assay with SN12C, 11.5 µM (inactive); in the assay on EKVX, 15.5 µM (inactive); with HCT-15 it was 3.4 µM; in the assay on CAKI-1, 11.2 µM (inactive). For the same compound, the GI50 with NCI-H460 is 17.7 µM (inactive); in the assay on SK-OV-3 it was 15.1 µM (inactive); in the assay with SNB-78, 14.9 µM (inactive); in the assay on U-251, 10.9 µM (inactive); with M14, 12.1 µM (inactive); with UACC-62 it was 14.2 µM (inactive). Further, the values for the GI50 in the assay with A549 and in the assay on UO-31 were 10.3 µM (inactive) and 11.2 µM (inactive), respectively.

`CCCCCCCCCCCCCCCCOC(=O)c1cc(O)cc(C(=O)OCCCCCCCCCCCCCCCC)c1`: the GI50 in the assay on NCI-H23 was > 100 µM (inactive); with COLO 205 it was > 100 µM (inactive); in the assay with SN12C it was > 100 µM (inactive); in the assay with EKVX, > 100 µM (inactive); with HCT-15, above 100 µM; in the assay with CAKI-1 it was > 100 µM (inactive). For the same compound, the GI50 in the assay on NCI-H460, with OVCAR-8, with SK-OV-3, in the assay with SNB-78, with U-251 and in the assay with M14 was > 100 µM (inactive) each time. The GI50 with UACC-62, in the assay on A549 and in the assay with UO-31 was > 100 µM (inactive) each time.

`Cc1c(/N=C\c2ccc(N(CCC#N)CCC#N)cc2)c(=O)n(-c2ccccc2)n1C`: the GI50 in the assay with NCI-H23 is > 100 µM (inactive); with COLO 205 it was > 100 µM (inactive); in the assay on SN12C it was > 93.5 µM (inactive); in the assay with EKVX it was > 93.5 µM (inactive); in the assay on MDA-N, > 100 µM (inactive); in the assay on DU-145, > 100 µM (inactive). The GI50 with MCF7 is > 63.7 µM (inactive); in the assay on HCT-15, above 100 µM; with CAKI-1 it was > 100 µM (inactive); in the assay on NCI-H460, > 100 µM (inactive); with MDA-MB-231, 77.4 µM (inactive); with OVCAR-8 it was > 100 µM (inactive). In addition, the GI50 in the assay with Hs-578T is 38 µM (inactive); with SK-OV-3 it was > 100 µM (inactive); in the assay on SNB-78 it was 51.6 µM (inactive); with U-251, 39.2 µM (inactive); with M14, 92.7 µM (inactive); in the assay on UACC-62, > 100 µM (inactive). Further, the GI50 in the assay on A549 was 82.6 µM (inactive); in the assay with UO-31, > 100 µM (inactive).

`CCSC1=CC(Cc2ccc(OC)cc2)N(C(=O)OC)C1` (stereo unspecified): the GI50 in the assay with NCI-H23 is > 100 µM (inactive); in the assay with COLO 205 it was 81.5 µM (inactive); in the assay with SN12C, > 100 µM (inactive); in the assay with EKVX, > 100 µM (inactive); with HCT-15 it was 40.7 µM; in the assay on CAKI-1, 86.5 µM (inactive). Further, the GI50 with NCI-H460, with OVCAR-8, in the assay on SK-OV-3, with SNB-78, in the assay with U-251 and in the assay on M14 was > 100 µM (inactive) in each case. Further, the results for the GI50 in the assay with UACC-62, with A549 and in the assay with UO-31 were 65.8 µM (inactive), > 100 µM (inactive) and > 100 µM (inactive), respectively.

Consider `Cc1nc(C)c(C(=O)Nc2cccc3c2C(=O)NC3=O)cc1C(=O)Nc1cccc2c1C(=O)NC2=O`, for which the GI50 with NCI-H23 is > 100 µM (inactive); with COLO 205 it was > 100 µM (inactive); in the assay with SN12C it was > 100 µM (inactive); in the assay with EKVX, > 100 µM (inactive); in the assay on HCT-15, above 100 µM; in the assay on CAKI-1, > 100 µM (inactive). Further, the GI50 with NCI-H460, in the assay on OVCAR-8, with SK-OV-3, with SNB-78, in the assay on U-251 and in the assay on M14 was > 100 µM (inactive) throughout. The GI50 with UACC-62, in the assay with A549 and in the assay with UO-31 was > 100 µM (inactive) throughout.

Take `S=c1sc2c(S)nc(S)nc2n1-c1ccccc1`: the GI50 was > 100 µM (inactive) with NCI-H23; > 100 µM (inactive) in the assay on COLO 205; > 100 µM (inactive) in the assay with SN12C; > 100 µM (inactive) in the assay with EKVX; above 100 µM with HCT-15; > 100 µM (inactive) with CAKI-1. For the same compound, the GI50 with NCI-H460, in the assay with OVCAR-8, in the assay with SK-OV-3, in the assay on SNB-78, in the assay on U-251 and with M14 was > 100 µM (inactive) throughout. Moreover, the GI50 in the assay on UACC-62, in the assay with A549 and with UO-31 was > 100 µM (inactive) each time.

As for `O=C1C2C3C=C4c5ccccc5N(c5ccccc5)C4(C2C(=O)N1c1ccc(Br)cc1)[C@H]1C(=O)N(c2ccc(Br)cc2)C(=O)[C@@H]31` (stereo partly specified), the GI50 in the assay with NCI-H23 was > 100 µM (inactive); in the assay on COLO 205 it was 31.6 µM (inactive); with SN12C, > 100 µM (inactive); in the assay with EKVX it was > 100 µM (inactive); in the assay with HCT-15 it was above 100 µM; with CAKI-1 it was 18.8 µM (inactive). Also, the GI50 with NCI-H460 is > 100 µM (inactive); in the assay with OVCAR-8, > 100 µM (inactive); in the assay on SK-OV-3, > 100 µM (inactive); in the assay with SNB-78, > 100 µM (inactive); with U-251, > 100 µM (inactive); in the assay with M14, 43.4 µM (inactive). The GI50 in the assay on UACC-62, in the assay on A549 and with UO-31 was > 100 µM (inactive) each time.

With `COC(=O)[C@@]12OC[C@]34C([C@@H](O)C1O)[C@@]1(C)CC(=O)C(OC(=O)/C=C(/c5ccccc5)C(F)(F)F)=C(C)C1C[C@H]3OC(=O)[C@H](O)[C@H]42` (stereo partly specified), the GI50 was 4.56 µM (inactive) in the assay with NCI-H23; 11.2 µM (inactive) in the assay with COLO 205; 7.93 µM (inactive) in the assay with SN12C; 38.6 µM (inactive) with EKVX; 23.8 µM with HCT-15; 20.1 µM (inactive) in the assay with CAKI-1. Also, the GI50 in the assay with NCI-H460 was 2.43 µM (inactive); with OVCAR-8, 12.1 µM (inactive); with SK-OV-3, 7.89 µM (inactive); in the assay with SNB-78, 11.2 µM (inactive); with U-251 it was 6.68 µM (inactive); with M14, 8.77 µM (inactive). In addition, the GI50 was 2.36 µM (inactive) in the assay with UACC-62, 16.5 µM (inactive) in the assay on A549 and 35.7 µM (inactive) with UO-31.

Turning to `CC(C)S(=O)(=O)ON1C(=O)c2ccc([N+](=O)[O-])cc2C1=O`, the GI50 in the assay with NCI-H23 is > 100 µM (inactive); in the assay with COLO 205 it was > 100 µM (inactive); with SN12C, > 100 µM (inactive); in the assay with EKVX, > 100 µM (inactive); with HCT-15, above 100 µM; in the assay with CAKI-1, > 100 µM (inactive). Also, the GI50 in the assay on NCI-H460, in the assay on OVCAR-8, in the assay with SK-OV-3, in the assay on SNB-78, in the assay with U-251 and in the assay with M14 was > 100 µM (inactive) each time. Moreover, the GI50 in the assay with UACC-62, in the assay on A549 and in the assay with UO-31 was > 100 µM (inactive) throughout.

In the case of `COc1cc2c(cc1OC)C(OC)N(C)c1c-2ccc2cc3c(cc12)OCO3` (stereo unspecified), the GI50 with NCI-H23 was 1.67 µM (inactive); with COLO 205, 0.733 µM (active); in the assay with SN12C, 0.813 µM (active); in the assay on EKVX, 1.82 µM (inactive); in the assay on MDA-N, 13.6 µM (inactive); in the assay on DU-145, 2.26 µM (inactive). The GI50 is 1.24 µM (inactive) in the assay with MCF7; 40.7 µM in the assay with HCT-15; 1.98 µM (inactive) in the assay on CAKI-1; 0.486 µM (active) in the assay with NCI-H460; 1.4 µM (inactive) in the assay on MDA-MB-231; 1.72 µM (inactive) in the assay with OVCAR-8. Also, the GI50 was 0.916 µM (active) in the assay on SK-OV-3; 2.67 µM (inactive) in the assay with SNB-78; 0.356 µM (active) with U-251; 3.3 µM (inactive) in the assay with M14; 0.8 µM (active) in the assay on UACC-62; 0.201 µM (active) with A549. The GI50 with UO-31 was 18.1 µM (inactive).

The record behind these values is ChEMBL document CHEMBL1201862, “PubChem BioAssay data set” (2004).
